Data: US20050112573A1, “Method of detecting toxic substance” (priority 2001, published 2005)

System: yeast genes (level of expressed mRNA)
Experiment: DNA chip analysis of expressed mRNA of yeast genes after 2 h culture with a toxic chemical substance
Format: cell-based, Saccharomyces cerevisiae S288C
Details: for The level of expressed mRNA in the presence of chemical substance/ (ratio to absence): transport facilitation protein gene; for The level of expressed mRNA in the presence of chemical substance/: ratio to no chemical; for The level of expressed mRNA in the presence of chemical substance/ (ratio to absence of chemical substance): stress protein genes, DNA chip
Procedure, shortened: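 Values are treated-to-control fluorescence ratios from a whole-yeast-genome DNA chip (65° C, over 12 h hybridization) using Cy3/Cy5-labelled cDNA from mRNA. Log-phase S288C cells in YPD at 25° C were exposed 2 h to a toxicant at sublethal, growth-inhibiting concentration.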

sodium dodecylbenzosulfonate [(17)]
The level of expressed mRNA in the presence of chemical substance/ (ratio to absence) (yeast gene YKL188C): 1.1
The level of expressed mRNA in the presence of chemical substance/ (ratio to absence) (yeast gene YKL192C): 1.0
The level of expressed mRNA in the presence of chemical substance/The level of expressed mRNA in the absence of chemical substance (yeast gene YKL193C): 1.2
The level of expressed mRNA in the presence of chemical substance/ (ratio to absence) (yeast gene YKL209C): 1.1
The level of expressed mRNA in the presence of chemical substance/ (ratio to absence) (yeast gene YKL217W): 1.7
The level of expressed mRNA in the presence of chemical substance/in the absence of chemical substance (yeast gene YKL218C): 2.5
The level of expressed mRNA in the presence of chemical substance/ (ratio to absence) (yeast gene YKL221W): 0.8
The level of expressed mRNA in the presence of chemical substance/ (yeast gene YKR007W): 0.8
The level of expressed mRNA in the presence of chemical substance/ (in its absence), gene YKR009C (yeast gene YKR009C, ratio of DNA chip fluorescence intensity to that without chemical substance): 1.9
The level of expressed mRNA in the presence of chemical substance/ (yeast gene YKR020W): 1.3
The level of expressed mRNA in the presence of chemical substance/ (in its absence), gene YKR034W (yeast gene YKR034W, ratio of DNA chip fluorescence intensity to that without chemical substance): 0.8
The level of expressed mRNA in the presence of chemical substance/ (ratio to absence) (yeast gene YKR039W): 0.9
The level of expressed mRNA in the presence of chemical substance/ (ratio to absence of chemical substance) (yeast gene YKR053C): 2.8
The level of expressed mRNA in the presence of chemical substance/ in its absence, gene YKR058W (yeast gene YKR058W, energy system protein genes, 2 h culture with the chemical, ratio to control without chemical): 0.8
The level of expressed mRNA in the presence of chemical substance/ (yeast gene YKR071C): 0.9
The level of expressed mRNA in the presence of chemical substance/in the absence of chemical substance (yeast gene YKR097W): 1.1
The level of expressed mRNA in the presence of chemical substance/ (ratio to absence) (yeast gene YKR105C): 0.8
The level of expressed mRNA in the presence of chemical substance/ (ratio to absence) (yeast gene YKR106W): 0.9
The level of expressed mRNA in the presence of chemical substance/ (yeast gene YLL025W): 1.0
The level of expressed mRNA in the presence of chemical substance/ (ratio to absence) (yeast gene YLL028W): 1.2
The level of expressed mRNA in the presence of chemical substance/ (ratio to absence) (yeast gene YLL055W): 1.1
The level of expressed mRNA in the presence of chemical substance/ (ratio to absence) (yeast gene YLL061W): 0.6
The level of expressed mRNA in the presence of chemical substance/ (yeast gene YLL062C): 0.9
The level of expressed mRNA in the presence of chemical substance/ (in its absence), gene YLR006C (yeast gene YLR006C, ratio of DNA chip fluorescence intensity to that without chemical substance): 1.6
The level of expressed mRNA in the presence of chemical substance/ (ratio to absence of chemical substance) (yeast gene YLR006C): 1.6
The level of expressed mRNA in the presence of chemical substance/in the absence of chemical substance (yeast gene YLR027C): 1.3
The level of expressed mRNA in the presence of chemical substance/ (ratio to absence) (yeast gene YLR092W): 1.0
The level of expressed mRNA in the presence of chemical substance/ (yeast gene YLR108C): 1.0
The level of expressed mRNA in the presence of chemical substance/The level of expressed mRNA in the absence of chemical substance (yeast gene YLR120C): 3.5
The level of expressed mRNA in the presence of chemical substance/in the absence of chemical substance (yeast gene YLR133W): 1.1
The level of expressed mRNA in the presence of chemical substance/The level of expressed mRNA in the absence of chemical substance (yeast gene YLR136C): 1.8
The level of expressed mRNA in the presence of chemical substance/ (yeast gene YLR145W): 1.0
The level of expressed mRNA in the presence of chemical substance/in the absence of chemical substance (yeast gene YLR155C): 1.4
The level of expressed mRNA in the presence of chemical substance/ (yeast gene YLR156W): 1.1
The level of expressed mRNA in the presence of chemical substance/in the absence of chemical substance (yeast gene YLR158C): 1.4
The level of expressed mRNA in the presence of chemical substance/The level of expressed mRNA in the absence of chemical substance (yeast gene YLR178C): 2.0
The level of expressed mRNA in the presence of chemical substance/in the absence of chemical substance (yeast gene YLR195C): 0.9
The level of expressed mRNA in the presence of chemical substance/ (yeast gene YLR247C): 1.2
The level of expressed mRNA in the presence of chemical substance/The level of expressed mRNA in the absence of chemical substance (yeast gene YLR250W): 1.4
The level of expressed mRNA in the presence of chemical substance/ (yeast gene YLR267W): 1.2
The level of expressed mRNA in the presence of chemical substance/ (yeast gene YLR280C): 1.2
The level of expressed mRNA in the presence of chemical substance/ (yeast gene YLR290C): 1.3
The level of expressed mRNA in the presence of chemical substance/ in its absence, gene YLR295C (yeast gene YLR295C, energy system protein genes, 2 h culture with the chemical, ratio to control without chemical): 0.9
The level of expressed mRNA in the presence of chemical substance/ (ratio to absence), gene YLR295C (yeast gene YLR295C, mitochondria-located protein genes, 2 h culture with chemical): 0.9
The level of expressed mRNA in the presence of chemical substance/in the absence of chemical substance (yeast gene YLR303W): 1.5
The level of expressed mRNA in the presence of chemical substance/ (yeast gene YLR311C): 1.3
The level of expressed mRNA in the presence of chemical substance/The level of expressed mRNA in the absence of chemical substance (yeast gene YLR327C): 3.3
The level of expressed mRNA in the presence of chemical substance/in the absence of chemical substance (yeast gene YLR345W): 1.2
The level of expressed mRNA in the presence of chemical substance/ (ratio to absence) (yeast gene YLR348C): 1.1
The level of expressed mRNA in the presence of chemical substance/ (in its absence), gene YLR351C (yeast gene YLR351C, ratio of DNA chip fluorescence intensity to that without chemical substance): 1.3
The level of expressed mRNA in the presence of chemical substance/The level of expressed mRNA in the absence of chemical substance (yeast gene YLR356W): 1.1
The level of expressed mRNA in the presence of chemical substance/The level of expressed mRNA in the absence of chemical substance (yeast gene YLR362W): 1.2
The level of expressed mRNA in the presence of chemical substance/ (in its absence), gene YLR375W (yeast gene YLR375W, ratio of DNA chip fluorescence intensity to that without chemical substance): 1.0
The level of expressed mRNA in the presence of chemical substance/ (ratio to absence) (yeast gene YLR378C): 0.9
The level of expressed mRNA in the presence of chemical substance/The level of expressed mRNA in the absence of chemical substance (yeast gene YLR391W): 1.4
The level of expressed mRNA in the presence of chemical substance/The level of expressed mRNA in the absence of chemical substance (yeast gene YLR429W): 1.0
The level of expressed mRNA in the presence of chemical substance/in the absence of chemical substance (yeast gene YML004C): 1.5
The level of expressed mRNA in the presence of chemical substance/ (yeast gene YML068W): 1.0
The level of expressed mRNA in the presence of chemical substance/ (ratio to absence) (yeast gene YML116W): 1.0
The level of expressed mRNA in the presence of chemical substance/ in its absence, gene YML129C (yeast gene YML129C, energy system protein genes, 2 h culture with the chemical, ratio to control without chemical): 1.3
The level of expressed mRNA in the presence of chemical substance/ (ratio to absence), gene YML129C (yeast gene YML129C, mitochondria-located protein genes, 2 h culture with chemical): 1.3
The level of expressed mRNA in the presence of chemical substance/in the absence of chemical substance (yeast gene YML131W): 2.5
The level of expressed mRNA in the presence of chemical substance/The level of expressed mRNA in the absence of chemical substance (yeast gene YMR004W): 0.9
The level of expressed mRNA in the presence of chemical substance/ (ratio to absence), gene YMR023C (yeast gene YMR023C, mitochondria-located protein genes, 2 h culture with chemical): 1.1
The level of expressed mRNA in the presence of chemical substance/ (yeast gene YMR034C): 1.8
The level of expressed mRNA in the presence of chemical substance/ (yeast gene YMR041C): 0.8
The level of expressed mRNA in the presence of chemical substance/ (ratio to absence) (yeast gene YMR056C): 1.0
The level of expressed mRNA in the presence of chemical substance/ (ratio to absence) (yeast gene YMR058W): 0.6
The level of expressed mRNA in the presence of chemical substance/The level of expressed mRNA in the absence of chemical substance (yeast gene YMR094W): 1.0
The level of expressed mRNA in the presence of chemical substance/The level of expressed mRNA in the absence of chemical substance (yeast gene YMR104C): 2.8
The level of expressed mRNA in the presence of chemical substance/ (yeast gene YMR178W): 1.1
The level of expressed mRNA in the presence of chemical substance/ (ratio to absence of chemical substance) (yeast gene YMR186W): 0.7
The level of expressed mRNA in the presence of chemical substance/ (ratio to absence) (yeast gene YMR203W): 0.8
The level of expressed mRNA in the presence of chemical substance/The level of expressed mRNA in the absence of chemical substance (yeast gene YMR219W): 1.1
The level of expressed mRNA in the presence of chemical substance/The level of expressed mRNA in the absence of chemical substance (yeast gene YMR226C): 1.6
The level of expressed mRNA in the presence of chemical substance/ (yeast gene YMR253C): 1.2
The level of expressed mRNA in the presence of chemical substance/ in its absence, gene YMR267W (yeast gene YMR267W, energy system protein genes, 2 h culture with the chemical, ratio to control without chemical): 0.9
The level of expressed mRNA in the presence of chemical substance/ (ratio to absence), gene YMR267W (yeast gene YMR267W, mitochondria-located protein genes, 2 h culture with chemical): 0.9
The level of expressed mRNA in the presence of chemical substance/ in its absence, gene YMR267W (yeast gene YMR267W, ratio of DNA chip fluorescence intensity to that without chemical substance): 0.9
The level of expressed mRNA in the presence of chemical substance/The level of expressed mRNA in the absence of chemical substance (yeast gene YMR275C): 0.9
The level of expressed mRNA in the presence of chemical substance/The level of expressed mRNA in the absence of chemical substance (yeast gene YMR276W): 1.2
The level of expressed mRNA in the presence of chemical substance/ (in its absence), gene YMR278W (yeast gene YMR278W, ratio of DNA chip fluorescence intensity to that without chemical substance): 1.0
The level of expressed mRNA in the presence of chemical substance/ (in its absence), gene YMR293C (yeast gene YMR293C, ratio of DNA chip fluorescence intensity to that without chemical substance): 0.8
The level of expressed mRNA in the presence of chemical substance/The level of expressed mRNA in the absence of chemical substance (yeast gene YMR314W): 1.3
The level of expressed mRNA in the presence of chemical substance/The level of expressed mRNA in the absence of chemical substance (yeast gene YNL006W): 1.0
The level of expressed mRNA in the presence of chemical substance/The level of expressed mRNA in the absence of chemical substance (yeast gene YNL007C): 1.1
The level of expressed mRNA in the presence of chemical substance/ (in its absence), gene YNL025C (yeast gene YNL025C, ratio of DNA chip fluorescence intensity to that without chemical substance): 0.7
The level of expressed mRNA in the presence of chemical substance/ (ratio to absence) (yeast gene YNL055C): 1.2
The level of expressed mRNA in the presence of chemical substance/ (ratio to absence of chemical substance) (yeast gene YNL064C): 0.7
The level of expressed mRNA in the presence of chemical substance/in the absence of chemical substance (yeast gene YNL071W): 1.0
The level of expressed mRNA in the presence of chemical substance/ (ratio to absence), gene YNL073W (yeast gene YNL073W, mitochondria-located protein genes, 2 h culture with chemical): 0.8
The level of expressed mRNA in the presence of chemical substance/The level of expressed mRNA in the absence of chemical substance (yeast gene YNL093W): 3.0
The level of expressed mRNA in the presence of chemical substance/ (yeast gene YNL122C): 1.0
The level of expressed mRNA in the presence of chemical substance/ (ratio to absence) (yeast gene YNL142W): 1.0
The level of expressed mRNA in the presence of chemical substance/ (in its absence), gene YNL192W (yeast gene YNL192W, ratio of DNA chip fluorescence intensity to that without chemical substance): 2.3
